From patent US9278086B2, “Combination therapy and uses thereof for treatment and prevention of parasitic infection and disease” (The Royal Institution for the Advancement of …, priority 2010, dated 2016)
Marks after values point to notes of the source that are not given here.

Columns and labels:
[1] = system: Plasmodium chabaudi; experiment: 4-day test, P. chabaudi (10^7 pRBC i.v.) in pantetheinase-deficient A/J mice, blood parasitemia days 4 and 5; format: in vivo; settings: for inhibition of parasitemia compared to PBS-treated controls: ART 0.2 mg/kg alone; for Inhibition of parasitemia Day 4 / Inhibition of parasitemia Day 5: days 0-3
Protocol: (§1) A/J and C57BL/6 (B6) mice were purchased from the Jackson Laboratories (Bar Harbor, Me.) and were housed at McGill University according to the guidelines of the Canadian Council on Animal Care. An LDH virus-free isolate of P. chabaudi AS was maintained by weekly passage in A/J mice. Mice were infected intravenously into the tail vein (i.v.) with 10^6 or 10^7 pRBC suspended in pyrogen-free saline. Following infection, the percentage of pRBC was determined daily on thin blood smears stained with Dif-Quik™ (Dade Behring, Newark, Del.), as described (Fortin A, et al. (2001) Proc Natl Acad Sci USA 98: 10793-10798).
(§2) Cysteamine hydrochloride (Sigma, Burlington ON) was prepared in PBS. Chloroquine hydrochloride, artesunate and dihydroartemisinin were provided by Dafra Pharmaceuticals; chloroquine was prepared in PBS, artesunate and DHA were prepared in 5% sodium bicarbonate and diluted in water to appropriate concentrations. All solutions were prepared fresh daily, filter sterilized and injections were performed intra-peritoneally (i.p) or subcutaneously (s.c.) for 4 days or according to treatment regimen. Mice were weighed prior to treatment to determine appropriate doses and injection volumes ranged from 100-400 μL per mouse. In the case of animals treated with two drugs, artemisinin derivatives were administered first (due to the short half life of cysteamine), followed by cysteamine 5-10 minutes later on alternate sides. Untreated control animals were injected with PBS alone.
(§3) Groups with normally distributed data points were compared using parametric unpaired t-tests, while groups with non-Gaussian distributions were compared using non-parametric Mann-Whitney tests. Survival differences were analyzed using the Log-Rank test. […] Standard error of percent inhibition was calculated from individual mice compared to the mean parasitemia level of the control group.
(§4) The effect of Cys on the potency and efficacy of the anti-malarial artemisinin derivatives was tested. […] Synergy (Tallarida R J (2001) J Pharmacol Exp Ther 298: 865-872) is defined as a total anti-malarial activity (reduction in blood parasitemia compared to untreated controls in a standard 4-day test) of the two compounds administered together being greater than the sum of the independent activities of the two compounds given alone. We tested combinations of Cys and either artesunate (ART) or dihydroartemisinin (DHA), the bioactive form of artemisinin. Pantetheinase-deficient mice were infected with P. chabaudi (10^7 pRBC, i.v.) and treated with Cys (170 mg/kg) and/or sub-optimal doses of ART (0.2 or 0.5 mg/kg) (FIG. 3A) or DHA (0.15 or 0.3 mg/kg) (FIG. 3B) from day 0-3 and parasitemia was monitored on days 4 and 5. […] Potentiation of the anti-malarial activity of ART (0.5 mg/kg) by Cys was also clearly evident in these C57BL/6 mice at both days 4 and 5 post-infection, with combined treatment causing a 65-71% reduction in parasitemia compared to PBS controls, greater than either compound tested alone (13-29%) (TABLE 1).
It was subsequently examined whether Cys potentiation of ART was dose dependent. Initially, Cys doses of 60, 100, 140 and 180 mg/kg were tested with a sub-optimal ART dose of 0.2 mg/kg. The drugs were administered from day 0-3 post infection, parasitemia was counted at day 4 and day 5 and the percent inhibition was calculated compared to PBS-treated controls (FIG. 4A). At 0.2 mg/kg, ART alone inhibits parasitemia by ˜20% (day 4) and 40% (day 5) while inhibition by Cys alone was partially dose dependent (varying between 10% and 25%). […] It was also assessed whether Cys could potentiate low doses of artesunate which, given alone, have no significant effect on parasitemia. In this experiment, Cys (170 mg/kg) was administered in combination, or not, with increasing doses of ART (0.05, 0.1, 0.2, 0.4 mg/kg) in the same 4-day experimental protocol.

[2] = system: Plasmodium chabaudi; experiment: 4-day test, P. chabaudi (10^7 pRBC i.v.) in pantetheinase-sufficient C57BL/6 mice, blood parasitemia days 4 and 5; format: in vivo; settings: for Inhibition of parasitemia Day 4 / Inhibition of parasitemia Day 5: days 0-3
Protocol: as §1, §2, §3, §4

[3] = system: Plasmodium chabaudi; experiment: Progression, resolution and survival of lethal P. chabaudi infection (10^6 pRBC i.v.) in A/J mice; format: in vivo
Protocol: as §1, §2
It was investigated if low dose Cys could potentiate standard doses of ART that show therapeutic activity in vivo and concurrently determined possible long-term effects on patent parasitemia, resolution of infection and survival in a lethal infection model. In this protocol, mice were infected with 10^6 pRBC P. chabaudi (i.v.) and treated with Cys (60 mg/kg) and/or ART (0.5, 1, 2, 5 and 10 mg/kg) for 4 days (days 0-3), while blood parasitemia and survival were followed for 22 days. Control animals treated with either PBS or Cys alone (60 mg/kg) developed high parasite burdens, which peaked at day 6, and all mice succumbed to the infection by day 7 (FIGS. 5A and 5C). […] Likewise, although all mice treated with 0.5 mg/kg ART succumbed to the infection early (day 8), mice additionally receiving Cys survived until day 9; moreover, addition of Cys to 1.0 mg/kg ART completely rescued animals from lethality of infection, with 100% survival in this group (FIGS. 5B, 5C).

[4] = system: Plasmodium chabaudi; experiment: Progression of P. chabaudi infection (10^6 pRBC i.v.) in pantetheinase-sufficient B6 mice; format: in vivo
Protocol: as §1, §2
To investigate whether the effects on parasite burden over the course of infection would also be observed with a pantetheinase-sufficient mouse strain, a similar experiment was performed using female B6 mice. Groups of mice were infected with 10^6 P. chabaudi pRBC i.v. and treated with PBS, 1 mg/kg or 30 mg/kg of Art, or 1 mg/kg or 30 mg/kg of Art plus 60 mg/kg of Cys for 4 days. […] As in A/J mice, the effect of Cys addition to 1 mg/kg of Art has a clear effect on early parasite replication at day 6 (FIG. 6B). […] B6 mice were able to completely clear parasite burdens and survive the infection, even in the control PBS-treated group.

[5] = system: Plasmodium berghei ANKA; experiment: Plasmodium berghei ANKA infection (cerebral malaria model) in C57BL/6J mice, parasitemia and survival; format: in vivo
Protocol: FIGS. 8A and 8B show the results of two independent experiments on the effect of cysteamine and artesunate combinations on the progression of Plasmodium berghei ANKA infection (parasitemia). Groups of 5 adult 18-20 g C57BL/6J males and females were infected intravenously with 1×10^6 erythrocytes parasitized with P. berghei ANKA at time “0”. Two hours later, mice were injected i.p with either Artemisinin alone or with Artemisinin/Cysteamine combinations (at the indicated concentrations in mg/kg body weight). In the case of the latter, Artemisinin was injected first in one quadrant, and cysteamine was injected second, 10-15 minutes later in another quadrant. The drug treatment was further repeated at days 1, 2 and 3 post-infection to emulate the standard 4-day test used in anti-malarial drug discovery. Starting at day 5, blood was collected, thin blood smears were prepared, and parasitemia was determined (400 erythrocytes counted, expressed as percentage parasitized erythrocytes). Error bars show standard deviations on the mean; and
FIGS. 9A and 9B show the results of two independent experiments on the effect of cysteamine and artesunate combinations on the survival of Plasmodium berghei ANKA-infected mice. Infection and drug administration were performed as described above for FIGS. 8A and 8B. Animals were monitored for the appearance and severity of cerebral symptoms (CM phase, shown as rectangle in graph), and moribund animals were euthanized, and time of death was recorded.
Intravenous infection with Plasmodium berghei ANKA is an accepted mouse model of cerebral malaria (CM) (Hunt, N. H. et al. 2006, Int. J. Parasitol. 36: 569-582). The infection causes the following pathology. First, there is appearance of blood parasitemia, starting at days 3 or 4, which can go up to 10% by day 7-8. Starting at day 5-6, there is emergence of cerebral symptoms caused by permeability of the blood brain barrier, concomitant to trapping of parasitized red cells in the microvasculature and acute pathological host inflammatory response in situ. This cerebral phase quickly progresses from tremors, to paralysis, to coma, and is uniformly lethal in mice by days 8-10. In this model, progress of infection and possibly drug effects may be monitored by a) appearance and intensity of blood parasitemia (between days 5-8), b) appearance of cerebral symptoms, and c) lethality.

[6] = humans, oral dose 1475 mg Cys bitartrate (500 mg cysteamine base), cited from earlier work
[7] = A/J mice, artesunate 0.2 mg/kg + cysteamine 170 mg/kg i.p.
[8] = A/J mice, artesunate 0.2 mg/kg alone
[9] = A/J mice, artesunate 0.5 mg/kg + cysteamine 170 mg/kg i.p.
[10] = A/J mice, artesunate 0.5 mg/kg alone
[11] = artesunate 0.5 mg/kg + cysteamine 170 mg/kg i.p.

C[C@H]1[C@H](OC(=O)CCC(=O)O)O[C@@H]2O[C@@]3(C)CC[C@H]4[C@H](C)CC[C@@H]1[C@@]24OO3 [Artesunate, artesunate]
inhibition of parasitemia compared to PBS-treated controls ([1]; A/J mice, day 4 (FIG. 4A)): ~20% | inhibition of parasitemia compared to PBS-treated controls ([1]; A/J mice, day 5 (FIG. 4A)): 40% | inhibition of parasitemia replication ([1]; A/J mice, ART 0.1 and 0.2 mg/kg combined with Cys 170 mg/kg (FIG. 4C)): 60-75% | inhibition of parasitemia replication ([1]; A/J mice, ART 0.1 and 0.2 mg/kg used alone (FIG. 4C)): < 10% | effect of addition of Cys on inhibition of parasitemia versus additive effect of the two compounds ([1]; A/J mice, Cys 170 mg/kg added to ART (0.2 or 0.5 mg/kg) or DHA (0.15 or 0.3 mg/kg)): synergistic effect | potentiation of low-dose artesunate by Cys ([1]; A/J mice, Cys 170 mg/kg with ART 0.05, 0.1, 0.2, 0.4 mg/kg (FIG. 4C)): ≥ 3 fold | Inhibition of parasitemia Day 4 [1, 7]: 65* % PBS control | Inhibition of parasitemia Day 5 [1, 7]: 56* % PBS control | Inhibition of parasitemia Day 4 [1, 8]: 30 % PBS control | Inhibition of parasitemia Day 5 [1, 8]: 20 % PBS control | Inhibition of parasitemia Day 4 [1, 9]: 93 % PBS control | Inhibition of parasitemia Day 5 [1, 9]: 80* % PBS control | Inhibition of parasitemia Day 4 [1, 10]: 65 % PBS control | Inhibition of parasitemia Day 5 [1, 10]: 43 % PBS control | symptoms of disease (ruffled fur, lethargy) ([1]; mice receiving both Cys and ART/DHA, compared to PBS or only one compound): fewer symptoms of disease | reduction in parasitemia compared to PBS controls ([2]; ART 0.5 mg/kg combined with Cys 170 mg/kg, days 4 and 5): 65-71% | Inhibition of parasitemia Day 4 [2, 11]: 71* % PBS control | Inhibition of parasitemia Day 5 [2, 11]: 65* % PBS control | Inhibition of parasitemia Day 4 ([2]; artesunate 0.5 mg/kg alone): 29 % PBS control | Inhibition of parasitemia Day 5 ([2]; artesunate 0.5 mg/kg alone): 21 % PBS control | day until which mice survived ([3]; ART 0.5 mg/kg + Cys 60 mg/kg): 9 days | day at which all mice succumbed to the infection ([3]; ART 0.5 mg/kg alone): 8 days | survival ([3]; ART 1.0 mg/kg + Cys 60 mg/kg): 100% | effect on infection (onset and peak of parasitemia) ([3]; ART alone 0.5-10 mg/kg, dose-dependent): delay in the onset of parasitemia and a reduction of peak parasitemia | further reduction in parasitemia at day 6 ([3]; Cys 60 mg/kg added to 0.5 mg/kg or 1 mg/kg ART): 60-70% | peak levels of parasitemia relative to the corresponding dose of ART alone ([3]; Cys 60 mg/kg added to all ART doses tested): reduction of peak levels of parasitemia | outward symptoms of disease (lethargy, ruffled fur) ([4]; 30 mg/kg Art plus Cys 60 mg/kg): did not display any outward symptoms of disease | parasite levels ([4]; 30 mg/kg Art plus Cys 60 mg/kg): under 12 % pRBC | parasite levels and peak compared to Art administered alone ([4]; Art 1 or 30 mg/kg + Cys 60 mg/kg, 4 days): reduction in parasite levels and a delay in the peak

C[C@@H]1CCC2[C@@H](C)C(=O)O[C@@H]3O[C@]4(C)CCC1C23OO4 (stereo partly shown) [Artemisinin]
rise and absolute levels of parasitemia (days 6-8) versus Artemisinin alone ([5]; Artemisinin 5 or 10 mg/kg + Cysteamine i.p., days 0-3): delay in the rise of parasitemia | prolongation of survival over Artemisinin alone ([5]; cysteamine added to Artemisinin): 1 to 2 days | effect of adding cysteamine compared with doubling the dose of Artemisinin ([5]; two independent experiments (FIG. 8A, 8B)): comparable (FIG. 8A) or superior (FIG. 8B)

NCCS.O=C(O)C(O)C(O)C(=O)O (stereo not shown) [Cys bitartrate, cysteamine bitartrate]
AUCT0-Tlast [6]: 3613 min

NCCS [Cys bitartrate, cysteamine bitartrate]
Cmax ([6]; read-out: peak plasma concentration (Cmax)): 39 µM
